Data as given in patent publication US11298412B2, “Sphingoid compounds for prophylaxis and/or therapy of coronaviridae infection” (priority 2020, dated 2022).
“Also recorded” adds a separate entry of the source.

Key:
pp-VSV-SARS-CoV-2 = assay: Adhesion of pp-VSV-SARS-CoV-2 on Vero cells, flow cytometry with anti-spike S1; assay type: cell-based; conditions: 20 minutes infection in presence of lipid
[1] = tested on: lymphocytic choriomeningitis virus (LCMV); assay type: cell-based, LCMV strain WE; conditions: 24 hours
recombinant ACE2 = target: T1, recombinant ACE2 (Homo sapiens, UniProt Q9BYF1); assay: Binding of lipids to immobilized recombinant ACE2; conditions: sphingosine at 2 μM
T1 construct: purchased Abcam ab273687
T1 sequence (Q9BYF1 18-805): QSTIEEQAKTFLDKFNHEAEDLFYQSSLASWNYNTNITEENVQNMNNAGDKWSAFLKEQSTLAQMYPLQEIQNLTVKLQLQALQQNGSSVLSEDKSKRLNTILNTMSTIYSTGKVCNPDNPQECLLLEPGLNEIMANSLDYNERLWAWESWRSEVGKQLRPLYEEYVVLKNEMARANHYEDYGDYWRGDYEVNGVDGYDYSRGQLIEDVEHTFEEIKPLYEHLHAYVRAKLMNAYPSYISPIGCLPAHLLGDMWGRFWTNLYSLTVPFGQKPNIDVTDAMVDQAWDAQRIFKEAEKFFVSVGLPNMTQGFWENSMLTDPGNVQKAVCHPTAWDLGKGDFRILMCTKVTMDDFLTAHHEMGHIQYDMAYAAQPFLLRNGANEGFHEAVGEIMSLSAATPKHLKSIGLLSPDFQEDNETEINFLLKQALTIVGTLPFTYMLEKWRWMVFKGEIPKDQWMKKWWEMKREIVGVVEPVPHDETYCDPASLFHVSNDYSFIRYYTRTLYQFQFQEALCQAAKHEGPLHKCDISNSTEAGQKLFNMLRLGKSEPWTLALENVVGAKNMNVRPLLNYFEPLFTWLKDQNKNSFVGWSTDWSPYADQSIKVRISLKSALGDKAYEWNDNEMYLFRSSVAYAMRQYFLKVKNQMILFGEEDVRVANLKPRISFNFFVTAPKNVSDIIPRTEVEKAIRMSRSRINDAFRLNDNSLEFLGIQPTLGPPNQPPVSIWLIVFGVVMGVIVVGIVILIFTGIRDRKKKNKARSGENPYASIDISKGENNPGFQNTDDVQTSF

[2] = tested on: lymphocytic choriomeningitis virus (LCMV); assay type: cell-based, LCMV strain WE
[3] = tested on: vesicular stomatitis virus (VSV); assay type: cell-based, VSV strain Indiana; conditions: 24 hours

| Compound | binding of pp-VSV-SARS-CoV-2 to the cell surface (pp-VSV-SARS-CoV-2) | binding of lipid to immobilized recombinant ACE2 (beads) (recombinant ACE2) | also measured |
| --- | --- | --- | --- |
| CCCCCCCCCCCCC/C=C/[C@@H](O)[C@H](CO)NC(=O)CCCCCCCCCCCCCCC [C16-ceramide] | None of the other lipids had an effect | – | – |
| Oc1ccc(Nc2nc(-c3ccc(Cl)cc3)cs2)cc1 [SKII, [2-(p-hydroxyanilino)-4-(p-chlorophenyl)thiazole]] | – | – | spreading of the virus (LCMV-infected cells) [1]: inhibits spreading of the virus; also recorded: inhibits the spreading of the virus |
| CCCCCCCCCCCCC/C=C/[C@@H](O)[C@@H](N)COP(=O)(O)O [sphingosine 1-phosphate] | None of the other lipids had an effect | showed no interation with the beads | – |
| cardiolipin | None of the other lipids had an effect | showed no interation with the beads | – |
| ceramide | – | showed no interation with the beads | – |
| lactosyl-ceramide | None of the other lipids had an effect | – | – |
| phosphatidyl-ethanolamine | – | showed no interation with the beads | – |
| phosphatidylcholine | None of the other lipids had an effect | showed no interation with the beads | – |
| sphingomyelin | None of the other lipids had an effect | showed no interation with the beads | – |
| sphingomyelinase | – | – | propagation of LCMV (infectious LCMV particles in the supernatant) [2]: reduced propagation of LCMV; also recorded: inhibits the propagation of LCMV; propagation of VSV (number of plaques) [3]: inhibits the propagation of VSV |
